These results are taken from patent US6635642B1, “PARP inhibitors, pharmaceutical compositions comprising same, and methods of using same” (Guilford Pharmaceuticals Inc., priority 1997, dated 2003).

T1 sequence (P09874 whole entry): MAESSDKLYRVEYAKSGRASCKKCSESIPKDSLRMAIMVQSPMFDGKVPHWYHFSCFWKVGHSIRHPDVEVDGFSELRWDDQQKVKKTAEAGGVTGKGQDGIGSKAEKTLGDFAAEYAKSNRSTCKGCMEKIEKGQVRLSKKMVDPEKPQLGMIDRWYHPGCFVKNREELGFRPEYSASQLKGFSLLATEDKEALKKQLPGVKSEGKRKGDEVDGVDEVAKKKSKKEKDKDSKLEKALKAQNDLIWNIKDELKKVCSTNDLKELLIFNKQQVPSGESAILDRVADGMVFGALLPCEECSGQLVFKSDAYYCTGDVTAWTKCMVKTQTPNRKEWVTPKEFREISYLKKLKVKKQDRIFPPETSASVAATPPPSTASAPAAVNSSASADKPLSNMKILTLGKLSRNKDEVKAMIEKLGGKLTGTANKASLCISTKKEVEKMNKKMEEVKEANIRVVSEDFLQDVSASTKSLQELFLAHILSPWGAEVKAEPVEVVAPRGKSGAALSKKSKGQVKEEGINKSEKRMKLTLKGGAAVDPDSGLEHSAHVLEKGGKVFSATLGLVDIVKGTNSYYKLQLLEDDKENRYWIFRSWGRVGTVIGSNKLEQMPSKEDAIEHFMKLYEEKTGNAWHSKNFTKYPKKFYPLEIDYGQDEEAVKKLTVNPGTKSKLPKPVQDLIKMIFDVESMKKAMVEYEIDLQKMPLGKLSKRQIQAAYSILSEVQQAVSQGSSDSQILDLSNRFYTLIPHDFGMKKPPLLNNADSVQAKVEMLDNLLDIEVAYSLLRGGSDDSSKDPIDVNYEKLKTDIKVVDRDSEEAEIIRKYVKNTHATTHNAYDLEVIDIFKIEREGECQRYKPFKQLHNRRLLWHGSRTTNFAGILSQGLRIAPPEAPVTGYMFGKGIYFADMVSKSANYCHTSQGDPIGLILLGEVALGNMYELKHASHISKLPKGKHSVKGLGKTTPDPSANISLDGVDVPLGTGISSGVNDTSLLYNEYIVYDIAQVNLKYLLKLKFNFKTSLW

The first experiment addresses T1, purified recombinant human PARP (Homo sapiens, UniProt P09874).
T1 construct: purchased Trevigen (Gaithersburg, Md.)
Kind of experiment: PARP enzyme assay ([3H]NAD incorporation, scintillation counting). In kind it is biochemical.
Conditions: not given
The procedure:
The reaction was initiated by incubating the mixture at 25° C. After 15 minutes' incubation, the reaction was terminated by adding 500 microliters of ice cold 20% (w/v) trichloroacetic acid. The precipitate formed was transferred onto a glass fiber filter (Packard Unifilter-GF/B) and washed three times with ethanol. After the filter was dried, the radioactivity was determined by scintillation counting.
For `Nc1ccc2c3c(cccc13)C(=O)NC2=O`, the IC50 is 0.09 µM.
With `O=C1NCCc2c(OCCCCN3CCCCC3)cccc21` [drawing 52], the IC50 amounted to 1.9 µM.
Turning to `O=C1NCc2cccc3cccc1c23`, the IC50 was found to be 0.54 µM.

The same experiment, now with this note: PARP inhibition; unit given as uM; read-out: Approximate IC50's.
For the compound `O=c1[nH]ccc2c([N+](=O)[O-])cccc12`, the IC50 is 3.4 µM.
The same measure, in the same setting: the figure for `NC(=O)c1cccc2cccc(C(=O)O)c12` [drawing 17] is 0.25 µM; for `O=c1[nH]c(-c2ccccc2)cc2ccccc12` it is 1.3 µM.
With `O=C1NCC([N+](=O)[O-])c2ccccc21` (stereo not shown), the IC50 turned out to be 1.6 µM.

The same experiment, now with this note: PARP inhibition; unit inferred; read-out: Approximate IC50's.
For the compound `O=c1[nH]nc2c3c(cccc13)Oc1ccc([N+](=O)[O-])cc1-2`, the IC50 was determined as 0.062 µM.
Still for that read-out and setting: the figure for `O=c1[nH]nc2c3c(cccc13)-c1ccc([N+](=O)[O-])cc1-2` is 0.056 µM.
Take `O=c1[nH]nc(-c2ccc(Cl)cc2)c2ccccc12`: the IC50 came out at 0.36 µM.
Regarding `O=C1NCC2c3ccccc3Oc3cccc1c32` (stereo not shown), the IC50 came out at 0.2 µM.
With `O=c1[nH]c2cc([N+](=O)[O-])ccc2c2ccccc12`, the IC50 amounted to 0.16 µM.
`O=c1[nH]nc(CN2CCN(c3ccccc3)CC2)c2ccccc12`: the IC50 was 4 µM.
For the compound `Nc1ccc2c(c1)-c1n[nH]c(=O)c3cccc-2c13`, the IC50 amounted to 0.068 µM.
Regarding `CN(C)c1ccc(-c2n[nH]c(=O)c3ccccc23)cc1N`, the IC50 stood at 0.22 µM.
Turning to `Nc1ccc2c(c1)-c1n[nH]c(=O)c3cccc(c13)O2`, the IC50 is 0.046 µM.
In the case of `O=C(O)c1cccc2[nH]c(=O)c3ccccc3c12`, the IC50 was 5.1 µM.
With `O=c1[nH]nc2c3c(cccc13)-c1ccccc1-2`, the IC50 came to 0.14 µM.
As for `O=C1NC(=O)c2ccc(SCCO)c3cccc1c23`, the IC50 is 2.8 µM.
Consider `O=C1NC(=O)c2cc(O)cc3cccc1c23`, for which the IC50 is 0.81 µM.
Same read-out and setting: with `O=C1CNC(=O)c2cc(Cl)ccc2N1` the figure was 1.6 µM; with `O=C1NC(=O)c2ccc(S(=O)(=O)O)c3cccc1c23`, 4 µM; with `CN(C)c1ccc2c(c1)[nH]c(=O)c1ccccc12`, 0.31 µM.
As to `O=c1[nH]nc2c3c(cccc13)Sc1ccccc1-2`, the IC50 turned out to be 0.11 µM.
As to `O=C1NC(=O)c2ccc(Cl)c3cccc1c23`, the 50% inhibitory concentration (IC50) stood at 0.46 µM.
Regarding `Nc1cccc2c1[nH]c(=O)c1ccccc12`, the IC50 came to 0.76 µM.
Consider `O=c1[nH]cc(Br)c2c(O)cccc12`, for which the IC50 turned out to be 0.6 µM.
Consider `O=c1[nH]nc(-c2ccc(N3CCCCC3)c([N+](=O)[O-])c2)c2ccccc12`, for which the IC50 was 0.3 µM.
For the compound `O=c1[nH]nc2c3c(cccc13)Oc1ccccc1-2`, the IC50 was 0.08 µM.
In the case of `O=C1NCC(c2ccccc2)Oc2ccccc21` (stereo not shown), the IC50 amounted to 1.9 µM.
Consider `COC(=O)c1c[nH]c(=O)c2ccccc12`, for which the IC50 worked out at 1.1 µM.
In the case of `CN(C)c1ccc(-c2n[nH]c(=O)c3ccccc23)cc1[N+](=O)[O-]`, the IC50 was 0.68 µM.
For `O=c1[nH]nc2c3c(cccc13)CCc1ccccc1-2`, the IC50 came to 0.4 µM.
`NC(=O)c1cccc2cccc(C(=O)O)c12` [drawing 59]: the IC50 stood at 0.25 µM.
Same read-out and setting: with `Nc1cccc2[nH]c(=O)c3ccccc3c12` the figure was 0.1 µM; with `O=c1[nH]nc(CN2CCN(c3ccc(Cl)cc3)CC2)c2ccccc12`, 1.3 µM.

The same experiment, now with this note: PARP inhibition; unit μM; read-out: Approximate IC50's.
Regarding `O=c1[nH]c2cc(F)ccc2c2ccccc12`, the IC50 turned out to be 0.2 µM.
`O=c1[nH]c2ccc([N+](=O)[O-])cc2c2ccccc12`: the IC50 was found to be 0.9 µM.
The same measure, in the same setting: with `O=c1[nH]c2ccccc2c2ccccc12` the figure was 5.2 µM; with `O=c1[nH]c2cc3ccccc3cc2c2ccccc12`, 100 µM.
Turning to `Nc1ccc2c(c1)[nH]c(=O)c1ccccc12`, the IC50 stood at 4 µM.
For `O=c1[nH]c2ccc(Br)cc2c2ccccc12`, the IC50 came out at 1.1 µM.
`O=c1[nH]c2ccc(Cl)cc2c2ccccc12`: the IC50 is 0.7 µM.

A further experiment has as its system human fibroblast cells lines (either W138 or BJ cells). Nature of the experiment: Extending proliferative capacity and lifespan of cells. The settings on record: 10 uM; untreated cells stop dividing after about 40 days. In kind it is cell-based. How it is done: At the time of subdivision, the media is aspirated, and the cells rinsed with phosphate buffer saline (PBS) and then trypsinized. The cells are counted with a Coulter counter and plated at a density of 10^5 cells per cm^2 in 6-well tissue culture plates in DMEM/199 medium supplemented with 10% bovine calf serum and varying amounts (0.10 uM, and 1 mM: from a 100×stock solution in DMEM/M199 medium) of a PARP inhibitor of Formula I as disclosed herein. This process is repeated every 7 days until the cell appear to stop dividing. The untreated (control) cells reach senescence and stop dividing after about 40 days in culture. […] The cells treated with 1 mM 3-AB will still divide after 60 days in culture.
For `NC(=O)c1cccc(N)c1` [Compound 3-AB, 3-aminobenzamide], the “effect on lifespan of the cells” value is on record as “little or no effect”.

The same experiment, now with this note: 100 uM; untreated cells stop dividing after about 40 days.
For `NC(=O)c1cccc(N)c1` [Compound 3-AB, 3-aminobenzamide], the “effect on lifespan of the cells” value was “lengthen the lifespan of the cells”.

The experiment is the same for the next values; noted with them: 1 mM; untreated cells stop dividing after about 40 days.
As for `NC(=O)c1cccc(N)c1` [Compound 3-AB, 3-aminobenzamide], the “effect on lifespan and proliferative capacity of the cells” value was “dramatically increases the lifespan and proliferative capacity of the cells”; the “time in culture at which cells still divide” value is more than 60 days.

Another experiment relates to male Long-Evans rats. Nature of the experiment: Focal cerebral ischemia (right distal MCA cauterization with bilateral temporary CCA occlusion), infarct volume by TTC staining. The settings on record: in vivo administration, focal cerebral ischemia model in the rat. How it is done: Focal cerebral ischemia was produced by cauterization of the right distal MCA (middle cerebral artery) with bilateral temporary common carotid artery occlusion in male Long-Evans rats for 90 minutes. All procedures performed on the animals were approved by the University Institutional Animal Care and Use Committee of the University of Pennsylvania. A total of 42 rats (weights: 230-340 g) obtained from Charles River were used in this study. The animals fasted overnight with free access to water prior to the surgical procedure.
Two hours prior to MCA occlusion, varying amounts (control, n=14; 5 mg/kg, n=7; 10 mg/kg, n=7; 20 mg/kg, n=7; and 40 mg/kg, n=7) of the compound, 3,4-dihydro-5-[4-(1-piperidinyl)-butoxy]-1(2H)-isoquinolinone (“DPQ”) were dissolved in dimethyl sulfoxide (DMSO) using a sonicator. […]
Two hours after MCA occlusion, the animals were given the same doses of the PARP inhibitor as in the pre-treatment. […] To avoid artifacts due to edema, the-damaged area was calculated by subtracting the area of the normal tissue in the hemisphere ipsilateral to the stroke from the area of the hemisphere contralateral to the stroke, by the method of Swanson et al., “A Semiautomated Method for Measuring Brain Infarct Volume”, J. Cereb. […] The total volume of infarction was calculated by summation of the damaged volume of the brain slices.
Take `O=C1NCCc2c(OCCCCN3CCCCC3)cccc21` [DPQ, 3,4-dihydro-5-[4-(1-piperidinyl)-butoxy]-1(2H)-isoquinolinone]: the “effect on infarct volume, overall” value is “substantial reduction in infarct volume”.

The test system of a further experiment is rats.
Test: not given
The settings on record: trinitrobenzene sulfonic acid in 50% ethanol; cited from earlier work.
As for `NC(=O)c1cccc(N)c1` [Compound 3-AB, 3-aminobenzamide], the “inflammatory response in colitis” value is “reduced the inflammatory response”.

The subject of a further experiment is rabbits.
Test: not given
The settings on record: 1 mg/kg single injection; cited from earlier work.
`Oc1cccc2c(O)nccc12` [1,5-dihydroxyisoquinoline]: the reduced infarct size is recorded as 38-48%.

The experiment is the same for the next values; noted with them: 10 mg/kg single injection one minute before occlusion or before reperfusion; cited from earlier work.
Take `NC(=O)c1cccc(N)c1` [Compound 3-AB, 3-aminobenzamide]: the “reductions in infarct size in the heart” value is given as 32-42%.

Test system in another experiment: not given
Test: not given
The settings on record: in vivo; cited from earlier work.
With `NC(=O)c1cccnc1` [nicotinamide], the “delayed, NO-mediated vascular failure in endotoxic shock” value is “protects against delayed, NO-mediated vascular failure”.

Broadly, the IC50 is the concentration at which inhibition is half-maximal.
